Experimental data reported in US20040006070A1, “Intraspinal continuous infusion of midazolam hydrochloride for the treatment of pain” (priority 2002, published 2004).
Structures can show the parent of a compound that is named as a salt.

Experiment: Bloodwork: complete blood count, electrolytes, extended blood chemistry
Type: in vivo, sheep
Experimental: Indirect blood pressure, pulse recording, pain testing (mechanical stimulus device, cold and warm water baths see description in procedure) and weight were taken on days 1, 3, 7, 15, 22, 29, 36, and 43. Venous blood samples (15 ml drawn from the jugular vein with Vacutainer brand blood collection tubes) for complete blood count, electrolytes, and extended blood chemistry were drawn on days 1, 15, and 43 (mild procedure only light hand restraint necessary).

[1] = sheep Chicken Hawk #87, 5 mg/day, Day 1
[2] = sheep Chicken Hawk #87, 5 mg/day, Day 15
[3] = sheep Chicken Hawk #87, 5 mg/day, Day 43
[4] = sheep Elmer Fudd #437, 5 mg/day, Baseline
[5] = sheep Elmer Fudd #437, 5 mg/day, Day 1
[6] = sheep Elmer Fudd #437, 5 mg/day, Day 15
[7] = sheep Elmer Fudd #437, 5 mg/day, Day 43

Cc1ncc2n1-c1ccc(Cl)cc1C(c1ccccc1F)=NC2 [Midazolam, midazolam hydrochloride]
Glucose [1]: 67 mg/dL
Hct [1]: 34.1%
Hgb [1]: 11.7 g/dL
K+ [1]: 4.5 mEq/l
MCH [1]: 30.9 pg
MCHC [1]: 34.3 g/dL
MCV [1]: 30.19 fL
Na+ [1]: 150 mEq/l
Phos [1]: 6.6 mg/dL
Platlet Count [1]: 1.28e+06 µL⁻¹
RBC [1]: 1.1e+07 µL⁻¹
Total Bili [1]: 0.1 mg/dL
Total Prot [1]: 5.7 g/dL
WBC [1]: 6000 µL⁻¹
ALT [2]: 6 U/L
AST [2]: 58 U/L
Albumin [2]: 3.8 g/dL
Alk Phos [2]: 79 U/L
BUN [2]: 17 mg/dL
CPK [2]: 425 U/L
Cholesterol [2]: 61 mg/dL
Creatinine [2]: 1.3 mg/dL
Differential Count: Atyp lym [2]: 0%
Differential Count: Baso [2]: 1%
Differential Count: Eosin [2]: 4%
Differential Count: Lymph [2]: 62%
Differential Count: Mono [2]: 4%
Differential Count: Seg [2]: 29%
Gamma GT [2]: 64 U/L
Glucose [2]: 79 mg/dL
Hct [2]: 29.8%
Hgb [2]: 10.0 g/dL
K+ [2]: 4.7 mEq/l
MCH [2]: 10.4 pg
MCHC [2]: 33.6 g/dL
MCV [2]: 30.8 fL
Na+ [2]: 148 mEq/l
Phos [2]: 5.0 mg/dL
Platlet Count [2]: 1.018e+06 µL⁻¹
RBC [2]: 9.7e+06 µL⁻¹
Total Bili [2]: 0.1 mg/dL
Total Prot [2]: 6.2 g/dL
WBC [2]: 5690 µL⁻¹
ALT [3]: 8 U/L
AST [3]: 62 U/L
Albumin [3]: 3.8 g/dL
Alk Phos [3]: 149 U/L
BUN [3]: 14 mg/dL
CPK [3]: 61 U/L
Cholesterol [3]: 62 mg/dL
Creatinine [3]: 1.1 mg/dL
Differential Count: Atyp lym [3]: 1%
Differential Count: Baso [3]: 1%
Differential Count: Eosin [3]: 5%
Differential Count: Lymph [3]: 53%
Differential Count: Mono [3]: 3%
Differential Count: Seg [3]: 37%
Gamma GT [3]: 55 U/L
Glucose [3]: 82 mg/dL
Hct [3]: 32.3%
Hgb [3]: 10.7 g/dL
K+ [3]: 5.0 mEq/l
MCH [3]: 10.5 pg
MCHC [3]: 33.0 g/dL
MCV [3]: 31.7 fL
Na+ [3]: 147 mEq/l
Phos [3]: 6.5 mg/dL
Platlet Count [3]: 891000 µL⁻¹
RBC [3]: 1.02e+07 µL⁻¹
Total Bili [3]: 0.1 mg/dL
Total Prot [3]: 6.5 g/dL
WBC [3]: 5130 µL⁻¹
Differential Count: Atyp lym [4]: 0%
Differential Count: Bands [4]: 0%
Differential Count: Eosin [4]: 54%
Differential Count: Lymph [4]: 35%
Differential Count: Mono [4]: 9%
Differential Count: Seg [4]: 51%
Hct [4]: 38.5%
Hgb [4]: 13.4 g/dL
MCH [4]: 12.0 pg
MCHC [4]: 34.7 G/dl
MCV [4]: 34.5 fL
Platlet Count [4]: 562000 µL⁻¹
RBC [4]: 1.12e+07 µL⁻¹
WBC [4]: 5320 µL⁻¹
ALT [5]: 8 U/L
AST [5]: 70 U/L
Albumin [5]: 4.1 g/dL
Alk Phos [5]: 49 U/L
BUN [5]: 17 mg/dL
CPK [5]: 49 U/L
Cholesterol [5]: 78 mg/dL
Creatinine [5]: 1.3 mg/dL
Differential Count: Atyp lym [5]: 0%
Differential Count: Bands [5]: 1%
Differential Count: Eosin [5]: 1%
Differential Count: Lymph [5]: 31%
Differential Count: Mono [5]: 6%
Differential Count: Seg [5]: 61%
Gamma GT [5]: 51 U/L
Glucose [5]: 104 mg/dL
Hct [5]: 36.1%
Hgb [5]: 12.4 g/dL
K+ [5]: 4.7 mEq/l
MCH [5]: 11.4 pg
MCHC [5]: 34.3 G/dl
MCV [5]: 33.4 fL
Na+ [5]: 150 mEq/l
Phos [5]: 5.9 mg/dL
Platlet Count [5]: 788000 µL⁻¹
RBC [5]: 1.08e+07 µL⁻¹
Total Bili [5]: 0.1 mg/dL
Total Prot [5]: 7.4 g/dL
WBC [5]: 6600 µL⁻¹
ALT [6]: 6 U/L
AST [6]: 67 U/L
Albumin [6]: 3.8 g/dL
Alk Phos [6]: 88 U/L
BUN [6]: 15 mg/dL
CPK [6]: 77 U/L
Cholesterol [6]: 74 mg/dL
Creatinine [6]: 1.2 mg/dL
Differential Count: Atyp lym [6]: 0%
Differential Count: Bands [6]: 0%
Differential Count: Eosin [6]: 10%
Differential Count: Lymph [6]: 39%
Differential Count: Mono [6]: 2%
Differential Count: Seg [6]: 49%
Gamma GT [6]: 54 U/L
Glucose [6]: 73 mg/dL
Hct [6]: 37.3%
Hgb [6]: 12.7 g/dL
K+ [6]: 4.7 mEq/l
MCH [6]: 11.2 pg
MCHC [6]: 34.1 G/dl
MCV [6]: 32.8 fL
Na+ [6]: 149 mEq/l
Phos [6]: 6.6 mg/dL
Platlet Count [6]: 677000 µL⁻¹
RBC [6]: 1.14e+07 µL⁻¹
Total Bili [6]: 0.1 mg/dL
Total Prot [6]: 6.8 g/dL
WBC [6]: 4990 µL⁻¹
ALT [7]: 9 U/L
AST [7]: 61 U/L
Albumin [7]: 4.1 g/dL
Alk Phos [7]: 72 U/L
BUN [7]: 16 mg/dL
